Values of other authors as cited in US20160287532A1 (SignPath Pharma Inc., priority 2015, published 2016).
Like-named read-outs stand apart in the source and are kept apart here.

Assays:
MMP-1 [1] = settings: treated IVD samples
MMP-3 [2] = settings: after treatment; decreased from 0.9 ng/mg tissue
IL-6 [3] = settings: IVD cells pre-treated with IL-1β
IL-8 [4] = settings: IVD cells pre-treated with IL-1β
MMP-1 [5] = settings: IVD cells pre-treated with IL-1β
MMP-3 [6] = settings: IVD cells pre-treated with IL-1β
MMP-13 [7] = settings: IVD cells pre-treated with IL-1β
IL-6 [8] = settings: 10 μM EGCG, IL-1β stimulated
IL-8 [9] = settings: 10 μM EGCG, IL-1β stimulated
COX-2 = settings: 10 μM EGCG, IL-1β stimulated
MMP-1 [10] = settings: 10 μM EGCG, IL-1β stimulated
MMP-3 [11] = settings: 10 μM EGCG, IL-1β stimulated
MMP-13 [12] = settings: 10 μM EGCG, IL-1β stimulated
MMP-1 [13] = settings: IL-1β pre-stimulated disc cells
MMP-3 [14] = system: MMP-3
IL-1β [15] = system: IL-1β
IL-6 [16] = system: IL-6
IL-8 [17] = settings: 20 μM curcumin
NF-κB [18] = settings: IVD cells of patients with acute spinal injury
SOX9 = settings: IVD cells of patients with acute spinal injury
collagen type II = settings: IVD cells of patients with acute spinal injury
NF-κB [19] = settings: chondrocytes
MMP-9 [20] = settings: chondrocytes
MMP-3 [21] = settings: equine cartilage explants; dose dependent
MMP-3 [22] = biological target: T1, MMP-3 (Homo sapiens, UniProt P08254); settings: IL-1β stimulated chondrocytes
T1 construct: endogenous in cells; host or cells: IL-1β stimulated chondrocytes

[23] = if injected intravenously
MMP-2 [24] = settings: MDA breast cancer cell line
MMP-9 [25] = settings: MDA breast cancer cell line
TIMP-1 [26] = settings: high concentrations of curcumin
TIMP-2 = settings: high concentrations of curcumin
TIMP-3 = settings: high concentrations of curcumin
TIMP-4 = settings: high concentrations of curcumin
MMP-2 [27] = settings: MDA-MB-231 cells
TIMP-1 [28] = settings: MDA-MB-231 cells
MMP-2 [29] = settings: A549 in vitro
MMP-9 [30] = settings: A549 in vitro
MMP-3 [31] = settings: curcumin added to cell culture
MMP-3 [32] = settings: helicobacter pylori infected cells; dose dependent
MMP-9 [33] = biological target: T2, MMP-9 (Homo sapiens, UniProt P14780); settings: helicobacter pylori infected cells; dose dependent
T2 construct: endogenous in cells; host or cells: human gastric epithelial cells infected with Helicobacter pylori

MMP-1 [34] = settings: human astroglioma cells
MMP-3 [35] = settings: human astroglioma cells
MMP-9 [36] = settings: human astroglioma cells
[37] = system: type II collagen-induced arthritis; settings: oral, mice; dose dependent manner
MMP-1 [38] = settings: oral, mice; dose dependent manner
MMP-3 [39] = settings: oral, mice; dose dependent manner
IL-1β [40] = settings: monocytes and macrophages
IL-8 [41] = settings: monocytes and macrophages
TNF-α [42] = settings: monocytes and macrophages
[43] = system: monocyte chemoattractant protein-1 (MCP-1); settings: monocytes and macrophages
[44] = system: macrophage inflammatory protein-1α (MIP-1α); settings: monocytes and macrophages
IL-6 [45] = settings: monocytes, high glucose environment
IL-8 [46] = settings: monocytes, high glucose environment
TNF-α [47] = settings: monocytes, high glucose environment
MCP-1 [48] = settings: monocytes, high glucose environment
TNF-α [49] = settings: acute pancreatitis mouse model
acute pancreatitis = acute pancreatitis mouse model
TNF-α [50] = settings: Wistar albino rats, experimental acute pancreatitis
IL-6 [51] = settings: Wistar albino rats, experimental acute pancreatitis
IL-6 [52] = settings: viral induced ARDS mouse model
IL-8 [53] = settings: viral induced ARDS mouse model
interferon-γ [54] = settings: viral induced ARDS mouse model
MCP-1 [55] = settings: viral induced ARDS mouse model
[56] = system: viral induced acute respiratory distress syndrome; settings: viral induced ARDS mouse model
IL-6 [57] = settings: rheumatoid synovial fibroblasts
IL-8 [58] = settings: human esophageal epithelial cells
IL-8 [59] = settings: human articular chondrocytes
IL-6 [60] = settings: rats with non-bacterial prostatitis
IL-8 [61] = settings: rats with non-bacterial prostatitis
TNF-α [62] = settings: rats with non-bacterial prostatitis
interferon-γ [63] = settings: splenic T lymphocytes
IL-2 = settings: splenic T lymphocytes
TNF-α [64] = settings: peritoneal macrophages
IL-12 = settings: peritoneal macrophages
[65] = system: pro-inflammatory cytokines; settings: pancreatic carcinoma cell lines
[66] = system: pro-inflammatory cytokines; settings: hepatocellular carcinoma cell lines
[67] = system: pro-inflammatory cytokines; settings: colon carcinoma cell lines
[68] = system: pro-inflammatory cytokines; settings: multiple myeloma cell lines
COX2 = settings: chondrocytes

T2 sequence (P14780 94-707): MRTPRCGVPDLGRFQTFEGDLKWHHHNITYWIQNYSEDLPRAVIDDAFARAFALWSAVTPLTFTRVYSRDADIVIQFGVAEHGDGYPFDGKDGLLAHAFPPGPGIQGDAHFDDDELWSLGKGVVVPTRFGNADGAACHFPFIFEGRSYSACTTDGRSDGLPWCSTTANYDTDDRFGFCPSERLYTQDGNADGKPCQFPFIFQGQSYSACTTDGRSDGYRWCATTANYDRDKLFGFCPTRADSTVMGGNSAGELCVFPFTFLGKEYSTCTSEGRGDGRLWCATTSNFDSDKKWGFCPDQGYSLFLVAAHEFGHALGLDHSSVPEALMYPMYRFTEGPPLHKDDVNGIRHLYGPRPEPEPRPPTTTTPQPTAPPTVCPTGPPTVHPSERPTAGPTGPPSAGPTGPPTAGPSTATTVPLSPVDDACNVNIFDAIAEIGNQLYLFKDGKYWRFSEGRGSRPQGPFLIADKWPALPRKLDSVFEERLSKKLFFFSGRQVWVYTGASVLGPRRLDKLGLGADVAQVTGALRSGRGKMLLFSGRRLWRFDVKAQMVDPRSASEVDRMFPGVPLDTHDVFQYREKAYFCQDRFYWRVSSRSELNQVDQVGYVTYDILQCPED
T1 sequence (P08254 100-477): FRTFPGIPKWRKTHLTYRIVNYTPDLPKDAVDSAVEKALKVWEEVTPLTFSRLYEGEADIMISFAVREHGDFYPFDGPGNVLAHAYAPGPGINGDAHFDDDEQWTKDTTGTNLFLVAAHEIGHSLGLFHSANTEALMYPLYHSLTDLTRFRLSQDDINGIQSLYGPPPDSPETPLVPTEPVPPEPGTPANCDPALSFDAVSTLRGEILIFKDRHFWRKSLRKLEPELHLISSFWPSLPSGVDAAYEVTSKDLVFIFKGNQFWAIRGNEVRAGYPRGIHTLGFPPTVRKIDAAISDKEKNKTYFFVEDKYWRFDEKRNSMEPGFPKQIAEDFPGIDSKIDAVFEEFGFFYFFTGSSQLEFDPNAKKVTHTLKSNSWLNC

## IL-1Ra: recombinant interleukin-1 receptor antagonist
MMP-1 [1]
  effect on MMP-1 concentration: no effect
MMP-3 [2]
  concentration of total MMP-3 activity: 0.35 ng/mg tissue

## Oc1ccc(C=Cc2cc(O)cc(O)c2)cc1 [Resveratrol, resveratrol]
IL-6 [3]
  levels of IL-6: reduced
IL-8 [4]
  levels of IL-8: reduced
MMP-1 [5]
  levels of MMP-1: reduced
MMP-3 [6]
  levels of MMP-3: reduced
MMP-13 [7]
  levels of MMP-13: reduced

## epigallocatechin 3-gallate [EGCG]
IL-6 [8]
  expression of IL-6: inhibited
IL-8 [9]
  expression of IL-8: inhibited
COX-2
  expression of COX-2: inhibited
MMP-1 [10]
  expression of MMP-1: inhibited
MMP-3 [11]
  expression of MMP-3: inhibited
MMP-13 [12]
  expression of MMP-13: inhibited

## COc1cc(/C=C/C(=O)/C=C(O)/C=C/c2ccc(O)c(OC)c2)ccc1O [curcumin, 1,7-bis(4-hydroxy-3-methoxyphenyl)-1,6-heptadiene-3,5-dione]
MMP-1 [13]; 5 μM curcumin
  reduction in MMP-1 expression: 22%
MMP-1 [13]; 10 μM curcumin
  reduction in MMP-1 expression: 60%
MMP-1 [13]; 20 μM curcumin
  reduction in MMP-1 expression: 78%
MMP-3 [14]; 10 μM curcumin
  MMP-3 expression reduced: 70%
MMP-3 [14]; 20 μM curcumin
  MMP-3 expression reduced: 75%
IL-1β [15]; 10 μM curcumin
  Expression of IL-1β reduced: 70%
IL-1β [15]; 20 μM curcumin
  Expression of IL-1β reduced: 75%
IL-6 [16]; 10 μM curcumin
  expression of IL-6 decreased: 50%
IL-6 [16]; 20 μM curcumin
  expression of IL-6 decreased: 70%
IL-8 [17]
  IL-8 expression reduced: 50%
NF-κB [18]
  IL-1 induced NF-κB activity: blocked
SOX9
  IL-1 inhibition of SOX9 expression: reversed
Collagen type II
  IL-1 inhibition of collagen type II expression: reversed
NF-κB [19]
  IL-1 induced NF-κB activation: decrease
MMP-9 [20]
  MMP-9 regulation: down regulation
MMP-3 [21]
  IL-1β stimulated MMP-3 release: reduced
MMP-3 [22]
  MMP-3 activity: inhibited
[23]
  cardiopathy: QT prolongation
MMP-2 [24]
  MMP-2: inhibited
MMP-9 [25]
  MMP-9: inhibited
TIMP-1 [26]
  TIMP-1: up-regulated
TIMP-2
  TIMP-2: up-regulated
TIMP-3
  TIMP-3: up-regulated
TIMP-4
  TIMP-4: up-regulated
MMP-2 [27]
  MMP-2: down-regulated
TIMP-1 [28]
  TIMP-1: up-regulated
MMP-2 [29]
  MMP-2: Inhibition
MMP-9 [30]
  MMP-9: Inhibition
MMP-3 [31]
  MMP-3: dose dependent suppression
MMP-3 [32]
  MMP-3 activity: suppressed
MMP-9 [33]
  MMP-9 activity: suppressed
MMP-1 [34]
  MMP-1: Suppression
MMP-3 [35]
  MMP-3: Suppression
MMP-9 [36]
  MMP-9: Suppression
[37]
  type II collagen-induced arthritis: suppress
MMP-1 [38]
  MMP-1 expression in joints: suppress
MMP-3 [39]
  MMP-3 expression in joints: suppress
IL-1β [40]
  IL-1β release: suppresses
IL-8 [41]
  IL-8 release: suppresses
TNF-α [42]
  TNF-α release: suppresses
[43]
  MCP-1 release: suppresses
[44]
  MIP-1α release: suppresses
IL-6 [45]
  release of IL-6: markedly reduced
IL-8 [46]
  release of IL-8: markedly reduced
TNF-α [47]
  release of TNF-α: markedly reduced
MCP-1 [48]
  release of MCP-1: markedly reduced
TNF-α [49]
  TNF-α levels: suppression
Acute pancreatitis
  pancreatic injury: decreased
TNF-α [50]
  TNF-α levels: reduced
IL-6 [51]
  IL-6 levels: reduced
IL-6 [52]
  expression of IL-6: reduced
IL-8 [53]
  expression of IL-8: reduced
interferon-γ [54]
  expression of interferon-γ: reduced
MCP-1 [55]
  expression of MCP-1: reduced
[56]
  fibrosis: reduction
  inflammation: marked decrease
IL-6 [57]
  release of IL-6: block
IL-8 [58]
  release of IL-8: block
IL-8 [59]
  release of IL-8: block
IL-6 [60]
  IL-6 expression: reduced
IL-8 [61]
  IL-8 expression: reduced
TNF-α [62]
  TNF-α expression: reduced
interferon-γ [63]
  production of interferon-γ: inhibited
IL-2
  expression of IL-2: inhibited
TNF-α [64]
  production of TNF-α: inhibited
IL-12
  expression of IL-12: inhibited
[65]
  pro-inflammatory cytokines: suppressed
[66]
  pro-inflammatory cytokines: suppressed
[67]
  pro-inflammatory cytokines: suppressed
[68]
  pro-inflammatory cytokines: suppressed
COX2
  COX2 regulation: down regulation
